{"source": "patent US20180296630A1", "about": "“METHODS AND COMPOSITIONS FOR PREVENTING OR TREATING OPHTHALMIC CONDITIONS” (Stealth BioTherapeutics Corp, priority 2012, published 2018)", "key": {"[1]": {"test_system": "CNV mouse model", "experiment": "Laser-induced choroidal neovascularization (CNV) mouse model", "type": "in vivo, C57BL/6 male mice", "settings": "one week after laser", "excerpt": "CNV were induced in the eye with laser burns. Methods useful in the present studies have been described by Reich, Mol Vis 2003; 9:210-216.\nBriefly, five to six-week-old C57BL/6 male mice were anesthetized with chloral hydrate and the pupils were dilated with tropicamide. With a coverslip used as a contact lens, four laser spots (532 nm, 260 mw, 0.01 s, 50 μm; Novus Spectra, Lumenis, USA) were applied to the fundus in a circle around the optic disc in the right eye. Daily intraperitoneal injections of 1 mg/kg, 9 mg/kg D-Arg-2′,6′-Dmt-Lys-Phe-NH2 (D-Arg-2′,6′-Dmt-Lys-Phe-NH2) or vehicle were started the day prior to laser photocoagulation.\nAfter one week, mice were deeply anaesthetized and perfused through the left ventricle with 1 ml (50 mg/ml) of PB S-buffered fluorescein-dextran. Eyes were enucleated and fixed in 4% paraformaldehyde for 2 h. The eyes were sectioned at the equator, and the anterior half and retina were removed. The posterior eye segment containing the sclera and choroid was dissected into quarters by four to five radial cuts and mounted on a slide. All flatmounts were examined by a fluorescence microscope (AxioCam MRC; Carl Zeiss). […]\nThere were 48 locations of neovascularization in each group. The area of neovascularization was calculated using IMAGE-PROPLUS6.0 software. […]"}, "[2]": {"experiment": "Ocular pharmacokinetics and disposition of total radioactivity after topical instillation or subcutaneous dosing", "type": "in vivo, New Zealand White rabbits", "settings": "for AUC0-24 h / AUCinf / T1/2 / Tmax: topical instillation 1% solution, 40 μL/eye, total radioactivity; for time post-dosing at which equivalent drug concentration reached a maximum / equivalent drug content at peak concentration, of the total dose administered to the eye: topical instillation", "procedure": "Sixteen New Zealand White rabbits were dosed with a formulation consisting of 10 mg/mL of ^14C-labeled D-Arg-2′,6′-Dmt-Lys-Phe-NH2. Animals were at least twelve weeks old and weighed 2.30-3.43 kg at the time of dosing. Animals were randomized to treatment groups according to Table 7.\nDosing solutions were prepared by combining 14.70 mg (correction factor of 0.782) of non-radiolabeled D-Arg-2′,6′-Dmt-Lys-Phe-NH2, and 17.49 mg (correction factor of 0.770) of ^14C-labeled D-Arg-2′,6′-Dmt-Lys-Phe-NH2, and dissolving in 2.5 mL of 0.01M PBS, pH 7.4 to achieve a concentration of 9.97 mg/mL (1%, free peptide) and a radiolabeled concentration of […]. Three aliquots (100 μL) of dosing solution were brought to a volume of 25 mL with saline. Duplicate 100 μL aliquots of the diluted solutions were quantified for radioactivity by liquid scintillation counting (LSC). […] The dosing solutions were stored at 2-8° C. for up to 24 hours prior to use, or at −70° C. for future use.\nOn Day 1, 40 μL of the 1% (10 mg/mL) D-Arg-2′,6′-Dmt-Lys-Phe-NH2 dosing solution was topically instilled into both eyes of each animal in Groups A-G. Each animal in Groups H-I received a single subcutaneous dose of 0.1 mL/kg (1 mg/kg) of the dosing solution into the dorsal scapular region. At the designated time, each animal was anesthetized and blood was collected via cardiac puncture. Animals were euthanized following cardiac puncture. Approximately 3±0.5 mL of whole blood was collected in a K2EDTA tube. Four aliquots (100 μL) were directly transformed to combustion cones. Blood aliquots were stored at ≤−20° C. until analyzed.\nFor Groups A-G, the right globe and one left globe from each group (N=3 globes) were collected and necropsied. The remaining left eye (except for Group G) was collected for possible 3D-QWBA (Quantitative whole body autoradiography) analysis and the conjunctiva remained intact to the eyes. For Groups H-I, both globes were collected from each animal and necropsied. All eyes designated for necropsy were rinsed with normal saline and aqueous humor samples were collected. The globes were enucleated and frozen in liquid nitrogen and stored at ≤−80° C. prior to dissection. The vitreous humor, cornea, conjunctiva, iris/ciliary body, lens, retina, choroid, and sclera were collected from the appropriate eye, weighed, and stored at ≤−20° C. prior to analysis. Aqueous humor samples were also stored at ≤−20° C. until analyzed.\nAll radioactivity measurements were performed using a Beckman Liquid Scintillation Spectrometer. Two blood aliquots were combusted and two aliquots were reserved for combustion if needed. From each eye, the cornea, conjunctiva, iris/ciliary body, lens, retina, choroid, and sclera from each eye were weighed into combustion cones and combusted. Duplicate aliquots of each aqueous humor sample and each vitreous humor sample were transferred to scintillation vials using Insta-Gel as the scintillation fluid, and the amount of radioactivity was determined."}}}
{"substance": "D-Arg-2′,6′-Dmt-Lys-Phe-NH2", "values": [{"measurement": "area of neovascularization", "setting": "[1]; 1 mg/kg daily intraperitoneal", "value": "0.0068±0.0025"}, {"measurement": "area of neovascularization", "setting": "[1]; 9 mg/kg daily intraperitoneal", "value": "0.0067±0"}, {"measurement": "AUC0-24 h", "setting": "[2]; aqueous humor", "value": 2600, "unit": "hr*ng-equi/g"}, {"measurement": "AUCinf", "setting": "[2]; aqueous humor", "value": 2680, "unit": "hr*ng-equi/g"}, {"measurement": "T1/2", "setting": "[2]; aqueous humor", "value": 4.60, "unit": "h"}, {"measurement": "Tmax", "setting": "[2]; aqueous humor", "value": 4.0, "unit": "h"}, {"measurement": "radioactivity concentration", "setting": "[2]; blood, 1 hour after subcutaneous dosing (1 mg/kg)", "value": 356, "unit": "ng-equi/g"}, {"measurement": "radioactivity concentration", "setting": "[2]; blood, 2 hours after subcutaneous dosing (1 mg/kg)", "value": 87.9, "unit": "ng-equi/g"}, {"measurement": "AUC0-24 h", "setting": "[2]; blood", "value": 1210, "unit": "hr*ng-equi/g"}, {"measurement": "AUCinf", "setting": "[2]; blood", "value": 1250, "unit": "hr*ng-equi/g"}, {"measurement": "T1/2", "setting": "[2]; blood", "value": 4.36, "unit": "h"}, {"measurement": "Tmax", "setting": "[2]; blood", "value": 2.0, "unit": "h"}, {"measurement": "time post-dosing at which equivalent drug concentration reached a maximum", "setting": "[2]; choroid, lens and retina", "value": 4, "unit": "h"}, {"measurement": "equivalent drug concentration", "setting": "[2]; choroid, 1 hour after subcutaneous dosing (1 mg/kg)", "value": "558±251", "unit": "ng-equi/g"}, {"measurement": "AUC0-24 h", "setting": "[2]; choroid", "value": 1900, "unit": "hr*ng-equi/g"}, {"measurement": "AUCinf", "setting": "[2]; choroid", "value": 2190, "unit": "hr*ng-equi/g"}, {"measurement": "T1/2", "setting": "[2]; choroid", "value": 8.21, "unit": "h"}, {"measurement": "Tmax", "setting": "[2]; choroid", "value": 4.0, "unit": "h"}, {"measurement": "time post-dosing at which equivalent drug concentration reached a maximum", "setting": "[2]; conjunctiva, cornea and sclera", "value": 0.5, "unit": "h"}, {"measurement": "equivalent drug concentration", "setting": "[2]; conjunctiva, 1 hour after subcutaneous dosing (1 mg/kg)", "value": "650±12", "unit": "ng-equi/g"}, {"measurement": "equivalent drug content at peak concentration, of the total dose administered to the eye", "setting": "[2]; conjunctiva", "value": "0.293±0.198", "unit": "%"}, {"measurement": "AUC0-24 h", "setting": "[2]; conjunctiva", "value": "41,400 hr*ng-equi/g"}, {"measurement": "AUCinf", "setting": "[2]; conjunctiva", "value": "56,000 hr*ng-equi/g"}, {"measurement": "T1/2", "setting": "[2]; conjunctiva", "value": 13.6, "unit": "h"}, {"measurement": "Tmax", "setting": "[2]; conjunctiva", "value": 0.5, "unit": "h"}, {"measurement": "equivalent drug concentration", "setting": "[2]; cornea, 1 hour after subcutaneous dosing (1 mg/kg)", "value": 209, "unit": "ng-equi/g"}, {"measurement": "equivalent drug content at peak concentration, of the total dose administered to the eye", "setting": "[2]; cornea", "value": "0.028±0.005", "unit": "%"}, {"measurement": "AUC0-24 h", "setting": "[2]; cornea", "value": "14,000 hr*ng-equi/g"}, {"measurement": "Tmax", "setting": "[2]; cornea", "value": 0.5, "unit": "h"}, {"measurement": "equivalent drug concentration", "setting": "[2]; iris/ciliary body, 1 hour after subcutaneous dosing (1 mg/kg)", "value": "513±2", "unit": "ng-equi/g"}, {"measurement": "AUC0-24 h", "setting": "[2]; iris/ciliary body", "value": 2750, "unit": "hr*ng-equi/g"}, {"measurement": "AUCinf", "setting": "[2]; iris/ciliary body", "value": 3279, "unit": "hr*ng-equi/g"}, {"measurement": "T1/2", "setting": "[2]; iris/ciliary body", "value": 8.81, "unit": "h"}, {"measurement": "Tmax", "setting": "[2]; iris/ciliary body", "value": 4.0, "unit": "h"}, {"measurement": "AUC0-24 h", "setting": "[2]; lens", "value": 2720, "unit": "hr*ng-equi/g"}, {"measurement": "Tmax", "setting": "[2]; lens", "value": 4.0, "unit": "h"}, {"measurement": "equivalent drug concentration", "setting": "[2]; retina, 1 hour after subcutaneous dosing (1 mg/kg)", "value": "336±3", "unit": "ng-equi/g"}, {"measurement": "AUC0-24 h", "setting": "[2]; retina", "value": 1030, "unit": "hr*ng-equi/g"}, {"measurement": "AUCinf", "setting": "[2]; retina", "value": 1160, "unit": "hr*ng-equi/g"}, {"measurement": "T1/2", "setting": "[2]; retina", "value": 7.01, "unit": "h"}, {"measurement": "Tmax", "setting": "[2]; retina", "value": 4.0, "unit": "h"}, {"measurement": "equivalent drug concentration", "setting": "[2]; sclera, 1 hour after subcutaneous dosing (1 mg/kg)", "value": "530±47", "unit": "ng-equi/g"}, {"measurement": "equivalent drug content at peak concentration, of the total dose administered to the eye", "setting": "[2]; sclera", "value": "0.051±0.035", "unit": "%"}, {"measurement": "AUC0-24 h", "setting": "[2]; sclera", "value": 5780, "unit": "hr*ng-equi/g"}, {"measurement": "AUCinf", "setting": "[2]; sclera", "value": 8910, "unit": "hr*ng-equi/g"}, {"measurement": "T1/2", "setting": "[2]; sclera", "value": 18.3, "unit": "h"}, {"measurement": "Tmax", "setting": "[2]; sclera", "value": 0.5, "unit": "h"}, {"measurement": "AUC0-24 h", "setting": "[2]; vitreous humor", "value": 221, "unit": "hr*ng-equi/g"}, {"measurement": "AUCinf", "setting": "[2]; vitreous humor", "value": 253, "unit": "hr*ng-equi/g"}, {"measurement": "T1/2", "setting": "[2]; vitreous humor", "value": 7.50, "unit": "h"}, {"measurement": "Tmax", "setting": "[2]; vitreous humor", "value": 4.0, "unit": "h"}]}
